Measured values reported in article PMC3639963, “A New Class of Small Molecule Inhibitor of BMP Signaling” (PLoS ONE, 2013).

Legend:
Assay in all cases: Nanosyn kinase profiling
Format in all cases: biochemical
Conditions in all cases: read-out: Percentage inhibition; for inhibition at 0.1 µM: 0.1 µM inhibitor; for inhibition at 1 µM: 1 µM inhibitor
AKT3 = target: T1, AKT3 (Homo sapiens, UniProt Q9Y243)
T1 construct: purchased Nanosyn (enzymatic panel); SGC in-house recombinant human kinases (DSF panel); Invitrogen (ALK1-6)
Summary of the method: (§1)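 Percent inhibition of each kinase was measured with the inhibitor at 0.1 µM and at 1 µM, as part of a 200-kinase human selectivity panel.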

CAMK2α = target: T2, CAMK2α (Homo sapiens, UniProt Q9UQM7)
T2 construct: purchased Nanosyn (enzymatic panel); SGC in-house recombinant human kinases (DSF panel); Invitrogen (ALK1-6)
Summary of the method: as §1

EGFR = target: T3, EGFR (Homo sapiens, UniProt P00533)
T3 construct: purchased Nanosyn (enzymatic panel); SGC in-house recombinant human kinases (DSF panel); Invitrogen (ALK1-6)
Summary of the method: as §1

IGF1R = target: T4, IGF1R (Homo sapiens, UniProt P08069)
T4 construct: purchased Nanosyn (enzymatic panel); SGC in-house recombinant human kinases (DSF panel); Invitrogen (ALK1-6)
Summary of the method: as §1

EPHA4 = target: T5, EPHA4 (Homo sapiens, UniProt P54764)
T5 construct: purchased Nanosyn (enzymatic panel); SGC in-house recombinant human kinases (DSF panel); Invitrogen (ALK1-6)
Summary of the method: as §1

MAPK1 = target: T6, MAPK1 (Homo sapiens, UniProt P28482)
T6 construct: purchased Nanosyn (enzymatic panel); SGC in-house recombinant human kinases (DSF panel); Invitrogen (ALK1-6)
Summary of the method: as §1

PDGFRα = target: T7, PDGFRα (Homo sapiens, UniProt P16234)
T7 construct: purchased Nanosyn (enzymatic panel); SGC in-house recombinant human kinases (DSF panel); Invitrogen (ALK1-6)
Summary of the method: as §1

RSK3 = target: T8, RSK3 (Homo sapiens, UniProt Q15349)
T8 construct: purchased Nanosyn (enzymatic panel); SGC in-house recombinant human kinases (DSF panel); Invitrogen (ALK1-6)
Summary of the method: as §1

PLK1 = target: T9, PLK1 (Homo sapiens, UniProt P53350)
T9 construct: purchased Nanosyn (enzymatic panel); SGC in-house recombinant human kinases (DSF panel); Invitrogen (ALK1-6)
Summary of the method: as §1

PRKD2 = target: T10, PRKD2 (Homo sapiens, UniProt Q9BZL6)
T10 construct: purchased Nanosyn (enzymatic panel); SGC in-house recombinant human kinases (DSF panel); Invitrogen (ALK1-6)
T10 sequence (Q9BZL6 1-878): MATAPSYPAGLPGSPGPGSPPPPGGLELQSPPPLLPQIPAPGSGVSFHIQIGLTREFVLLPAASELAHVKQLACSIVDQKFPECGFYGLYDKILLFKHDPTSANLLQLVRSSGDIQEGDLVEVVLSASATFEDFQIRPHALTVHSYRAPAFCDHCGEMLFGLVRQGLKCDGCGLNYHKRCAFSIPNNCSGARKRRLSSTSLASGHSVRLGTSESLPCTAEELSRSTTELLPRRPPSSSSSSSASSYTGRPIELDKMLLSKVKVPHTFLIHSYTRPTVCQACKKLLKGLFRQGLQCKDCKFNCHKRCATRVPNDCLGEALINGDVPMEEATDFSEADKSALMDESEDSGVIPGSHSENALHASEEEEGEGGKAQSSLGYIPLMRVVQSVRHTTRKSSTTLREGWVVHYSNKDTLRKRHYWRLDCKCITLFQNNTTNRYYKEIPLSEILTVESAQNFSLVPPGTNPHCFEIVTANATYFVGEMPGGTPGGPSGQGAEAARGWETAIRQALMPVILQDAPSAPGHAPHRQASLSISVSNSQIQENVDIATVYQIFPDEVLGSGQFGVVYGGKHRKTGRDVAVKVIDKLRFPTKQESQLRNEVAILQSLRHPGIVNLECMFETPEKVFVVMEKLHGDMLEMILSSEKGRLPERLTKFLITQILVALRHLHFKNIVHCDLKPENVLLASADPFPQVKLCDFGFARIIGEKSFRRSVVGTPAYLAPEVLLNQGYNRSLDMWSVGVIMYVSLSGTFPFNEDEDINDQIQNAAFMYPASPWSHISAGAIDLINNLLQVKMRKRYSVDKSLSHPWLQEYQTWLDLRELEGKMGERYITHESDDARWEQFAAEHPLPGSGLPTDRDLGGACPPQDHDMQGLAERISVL
Summary of the method: as §1

AURKB = target: T11, AURKB (Homo sapiens, UniProt Q96GD4)
T11 construct: purchased Nanosyn (enzymatic panel); SGC in-house recombinant human kinases (DSF panel); Invitrogen (ALK1-6)
Summary of the method: as §1

MER = target: T12, MER (Homo sapiens, UniProt Q12866)
T12 construct: purchased Nanosyn (enzymatic panel); SGC in-house recombinant human kinases (DSF panel); Invitrogen (ALK1-6)
T12 sequence (Q12866 21-999): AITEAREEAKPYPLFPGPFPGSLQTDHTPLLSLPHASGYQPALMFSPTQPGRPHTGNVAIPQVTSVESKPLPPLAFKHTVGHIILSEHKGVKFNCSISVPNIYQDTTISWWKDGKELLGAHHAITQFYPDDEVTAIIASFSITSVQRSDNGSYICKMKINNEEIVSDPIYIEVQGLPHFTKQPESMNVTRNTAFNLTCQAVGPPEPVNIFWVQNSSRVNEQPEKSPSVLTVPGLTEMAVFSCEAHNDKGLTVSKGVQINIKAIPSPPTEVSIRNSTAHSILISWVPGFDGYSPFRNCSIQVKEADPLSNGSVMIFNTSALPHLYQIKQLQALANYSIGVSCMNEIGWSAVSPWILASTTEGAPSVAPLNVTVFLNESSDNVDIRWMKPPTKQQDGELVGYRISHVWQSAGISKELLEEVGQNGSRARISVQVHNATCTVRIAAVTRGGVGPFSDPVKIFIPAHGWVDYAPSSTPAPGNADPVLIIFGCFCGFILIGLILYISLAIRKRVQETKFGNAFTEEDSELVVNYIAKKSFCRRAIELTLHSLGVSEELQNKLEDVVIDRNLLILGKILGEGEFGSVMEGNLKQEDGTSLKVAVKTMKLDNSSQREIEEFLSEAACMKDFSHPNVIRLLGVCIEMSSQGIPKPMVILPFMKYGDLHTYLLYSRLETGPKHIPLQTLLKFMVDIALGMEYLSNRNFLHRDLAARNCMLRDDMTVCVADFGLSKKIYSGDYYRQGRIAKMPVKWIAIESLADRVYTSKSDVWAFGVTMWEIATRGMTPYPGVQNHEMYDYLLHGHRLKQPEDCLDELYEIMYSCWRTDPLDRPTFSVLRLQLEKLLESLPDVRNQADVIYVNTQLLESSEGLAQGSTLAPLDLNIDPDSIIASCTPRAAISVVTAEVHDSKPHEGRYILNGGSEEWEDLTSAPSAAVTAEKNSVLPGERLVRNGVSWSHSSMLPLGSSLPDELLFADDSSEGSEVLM
Summary of the method: as §1

LRRK2 = target: T13, LRRK2 (Homo sapiens, UniProt Q5S007)
T13 construct: purchased Nanosyn (enzymatic panel); SGC in-house recombinant human kinases (DSF panel); Invitrogen (ALK1-6)
Summary of the method: as §1

T6 sequence (P28482 whole entry): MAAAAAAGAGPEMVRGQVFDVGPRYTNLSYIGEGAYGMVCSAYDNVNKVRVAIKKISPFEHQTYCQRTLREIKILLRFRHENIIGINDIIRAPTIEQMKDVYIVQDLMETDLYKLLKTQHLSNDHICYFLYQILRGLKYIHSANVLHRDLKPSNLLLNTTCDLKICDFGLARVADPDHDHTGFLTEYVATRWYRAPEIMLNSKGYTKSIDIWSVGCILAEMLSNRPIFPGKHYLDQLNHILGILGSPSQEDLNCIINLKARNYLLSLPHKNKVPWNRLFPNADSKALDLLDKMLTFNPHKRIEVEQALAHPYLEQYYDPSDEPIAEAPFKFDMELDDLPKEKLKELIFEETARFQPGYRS
T5 sequence (P54764 20-986): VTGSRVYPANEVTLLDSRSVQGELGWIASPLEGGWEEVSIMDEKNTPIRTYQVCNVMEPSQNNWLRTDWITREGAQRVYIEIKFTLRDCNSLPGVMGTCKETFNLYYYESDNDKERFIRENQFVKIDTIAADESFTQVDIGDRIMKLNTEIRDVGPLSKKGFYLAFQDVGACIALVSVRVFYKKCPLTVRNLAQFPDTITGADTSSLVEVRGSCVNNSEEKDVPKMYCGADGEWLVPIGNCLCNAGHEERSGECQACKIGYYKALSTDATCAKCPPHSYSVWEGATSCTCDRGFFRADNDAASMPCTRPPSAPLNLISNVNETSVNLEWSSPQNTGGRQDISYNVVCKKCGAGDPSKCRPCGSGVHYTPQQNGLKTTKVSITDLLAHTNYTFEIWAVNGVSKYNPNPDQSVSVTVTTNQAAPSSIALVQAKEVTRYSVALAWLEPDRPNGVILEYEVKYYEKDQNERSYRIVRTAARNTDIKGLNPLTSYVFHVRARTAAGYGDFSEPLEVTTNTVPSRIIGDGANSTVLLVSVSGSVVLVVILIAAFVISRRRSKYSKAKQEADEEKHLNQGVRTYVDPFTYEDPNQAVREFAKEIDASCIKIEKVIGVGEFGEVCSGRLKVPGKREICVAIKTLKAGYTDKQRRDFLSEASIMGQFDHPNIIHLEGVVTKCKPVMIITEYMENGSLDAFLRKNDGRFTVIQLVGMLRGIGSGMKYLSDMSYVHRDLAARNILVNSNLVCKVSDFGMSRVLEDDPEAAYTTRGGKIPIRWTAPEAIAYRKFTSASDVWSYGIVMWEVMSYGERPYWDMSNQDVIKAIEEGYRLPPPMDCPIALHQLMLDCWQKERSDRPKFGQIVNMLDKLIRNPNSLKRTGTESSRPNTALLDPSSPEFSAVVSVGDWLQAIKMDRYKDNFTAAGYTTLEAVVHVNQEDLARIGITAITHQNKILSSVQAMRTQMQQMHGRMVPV
T9 sequence (P53350 whole entry): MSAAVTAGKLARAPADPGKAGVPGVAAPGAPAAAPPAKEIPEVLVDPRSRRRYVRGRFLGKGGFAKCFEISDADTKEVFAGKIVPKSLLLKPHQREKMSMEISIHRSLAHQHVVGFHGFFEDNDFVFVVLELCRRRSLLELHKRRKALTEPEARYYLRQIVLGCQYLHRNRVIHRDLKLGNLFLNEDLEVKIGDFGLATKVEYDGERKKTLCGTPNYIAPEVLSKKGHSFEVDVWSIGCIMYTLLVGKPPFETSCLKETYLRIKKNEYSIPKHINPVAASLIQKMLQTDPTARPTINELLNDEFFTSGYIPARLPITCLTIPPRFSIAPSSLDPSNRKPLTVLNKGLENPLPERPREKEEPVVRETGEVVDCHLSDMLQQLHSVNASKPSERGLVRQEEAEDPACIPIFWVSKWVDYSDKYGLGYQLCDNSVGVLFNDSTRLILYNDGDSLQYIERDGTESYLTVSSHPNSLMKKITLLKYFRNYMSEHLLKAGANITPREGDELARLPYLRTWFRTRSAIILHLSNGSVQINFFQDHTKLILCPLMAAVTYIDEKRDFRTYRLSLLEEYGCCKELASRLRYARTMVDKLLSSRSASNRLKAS
T11 sequence (Q96GD4 whole entry): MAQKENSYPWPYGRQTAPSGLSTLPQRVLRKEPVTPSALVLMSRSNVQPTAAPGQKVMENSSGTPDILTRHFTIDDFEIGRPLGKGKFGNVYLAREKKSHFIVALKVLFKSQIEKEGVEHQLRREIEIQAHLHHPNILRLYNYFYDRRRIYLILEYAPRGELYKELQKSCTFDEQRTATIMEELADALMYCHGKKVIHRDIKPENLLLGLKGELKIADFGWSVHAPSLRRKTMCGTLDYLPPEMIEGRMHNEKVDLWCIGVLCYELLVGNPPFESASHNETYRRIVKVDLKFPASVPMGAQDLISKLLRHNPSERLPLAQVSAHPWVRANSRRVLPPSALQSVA
T1 sequence (Q9Y243 whole entry): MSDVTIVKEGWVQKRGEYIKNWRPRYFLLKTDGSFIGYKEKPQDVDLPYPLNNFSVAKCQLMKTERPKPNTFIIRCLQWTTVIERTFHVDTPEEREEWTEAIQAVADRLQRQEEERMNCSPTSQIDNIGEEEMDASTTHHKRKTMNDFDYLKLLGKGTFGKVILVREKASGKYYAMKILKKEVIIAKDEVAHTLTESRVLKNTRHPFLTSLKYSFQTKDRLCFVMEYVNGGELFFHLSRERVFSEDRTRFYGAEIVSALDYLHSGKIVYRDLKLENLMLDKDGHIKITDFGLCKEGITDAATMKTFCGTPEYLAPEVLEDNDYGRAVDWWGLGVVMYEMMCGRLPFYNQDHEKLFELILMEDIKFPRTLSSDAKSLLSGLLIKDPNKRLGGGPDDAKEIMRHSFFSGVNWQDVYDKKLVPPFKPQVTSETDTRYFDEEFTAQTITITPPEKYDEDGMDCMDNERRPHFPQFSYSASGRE
T2 sequence (Q9UQM7 whole entry): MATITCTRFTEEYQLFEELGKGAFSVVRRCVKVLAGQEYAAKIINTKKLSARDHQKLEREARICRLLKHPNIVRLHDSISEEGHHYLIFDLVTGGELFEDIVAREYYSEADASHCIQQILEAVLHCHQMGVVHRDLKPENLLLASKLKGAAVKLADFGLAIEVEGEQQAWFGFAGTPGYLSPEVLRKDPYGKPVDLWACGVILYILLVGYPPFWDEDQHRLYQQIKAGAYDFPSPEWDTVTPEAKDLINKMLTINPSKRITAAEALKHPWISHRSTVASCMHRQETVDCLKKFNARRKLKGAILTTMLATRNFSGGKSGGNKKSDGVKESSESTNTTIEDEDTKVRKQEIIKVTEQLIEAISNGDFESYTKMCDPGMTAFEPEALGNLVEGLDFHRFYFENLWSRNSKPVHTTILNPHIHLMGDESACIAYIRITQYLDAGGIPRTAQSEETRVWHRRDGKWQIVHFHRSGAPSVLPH
T8 sequence (Q15349 whole entry): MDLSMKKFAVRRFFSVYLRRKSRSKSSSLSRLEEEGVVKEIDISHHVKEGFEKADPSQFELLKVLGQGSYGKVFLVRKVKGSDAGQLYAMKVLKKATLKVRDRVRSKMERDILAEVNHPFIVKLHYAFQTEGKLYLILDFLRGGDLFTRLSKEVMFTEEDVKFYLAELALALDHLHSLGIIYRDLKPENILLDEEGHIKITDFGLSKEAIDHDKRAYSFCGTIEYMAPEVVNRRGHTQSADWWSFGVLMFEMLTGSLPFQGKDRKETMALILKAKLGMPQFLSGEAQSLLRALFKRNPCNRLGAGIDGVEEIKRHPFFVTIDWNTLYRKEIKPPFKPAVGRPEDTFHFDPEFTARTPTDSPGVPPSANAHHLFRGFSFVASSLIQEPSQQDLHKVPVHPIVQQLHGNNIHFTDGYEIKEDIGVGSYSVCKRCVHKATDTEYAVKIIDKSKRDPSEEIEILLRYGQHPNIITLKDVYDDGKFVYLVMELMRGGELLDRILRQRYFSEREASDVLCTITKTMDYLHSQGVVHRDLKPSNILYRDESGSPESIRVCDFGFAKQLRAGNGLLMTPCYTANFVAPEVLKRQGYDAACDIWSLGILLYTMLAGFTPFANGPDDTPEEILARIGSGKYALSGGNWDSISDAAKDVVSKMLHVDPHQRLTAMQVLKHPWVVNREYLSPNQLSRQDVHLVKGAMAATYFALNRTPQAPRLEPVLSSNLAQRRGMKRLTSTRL
T7 sequence (P16234 24-1089): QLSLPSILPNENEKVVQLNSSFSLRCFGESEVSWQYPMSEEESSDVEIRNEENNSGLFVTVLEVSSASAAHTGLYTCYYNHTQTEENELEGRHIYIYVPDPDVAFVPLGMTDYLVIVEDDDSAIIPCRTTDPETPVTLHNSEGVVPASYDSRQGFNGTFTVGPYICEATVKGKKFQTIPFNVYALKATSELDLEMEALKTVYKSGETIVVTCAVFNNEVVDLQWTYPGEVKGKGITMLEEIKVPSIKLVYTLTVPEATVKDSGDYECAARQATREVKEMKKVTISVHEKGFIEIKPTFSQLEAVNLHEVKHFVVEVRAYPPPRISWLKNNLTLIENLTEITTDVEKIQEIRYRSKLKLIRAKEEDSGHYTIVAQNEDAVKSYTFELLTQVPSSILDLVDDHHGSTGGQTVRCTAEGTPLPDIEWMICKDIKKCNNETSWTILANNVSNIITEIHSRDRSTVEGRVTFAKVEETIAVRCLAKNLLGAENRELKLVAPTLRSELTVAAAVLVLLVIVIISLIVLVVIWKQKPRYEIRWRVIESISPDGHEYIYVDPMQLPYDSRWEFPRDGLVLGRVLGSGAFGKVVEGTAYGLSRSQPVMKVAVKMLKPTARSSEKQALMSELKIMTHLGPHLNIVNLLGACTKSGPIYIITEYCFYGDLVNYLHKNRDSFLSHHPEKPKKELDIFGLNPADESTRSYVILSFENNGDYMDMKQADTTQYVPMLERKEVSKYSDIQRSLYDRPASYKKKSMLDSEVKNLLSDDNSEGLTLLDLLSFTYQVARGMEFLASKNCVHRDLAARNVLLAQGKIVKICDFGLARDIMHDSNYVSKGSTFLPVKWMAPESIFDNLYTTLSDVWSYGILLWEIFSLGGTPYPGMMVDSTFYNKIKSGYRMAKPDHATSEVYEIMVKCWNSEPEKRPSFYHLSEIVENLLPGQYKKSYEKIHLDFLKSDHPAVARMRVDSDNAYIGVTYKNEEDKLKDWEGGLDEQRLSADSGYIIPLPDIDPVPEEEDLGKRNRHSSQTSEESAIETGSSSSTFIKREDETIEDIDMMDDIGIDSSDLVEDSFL

SMILES | inhibition at 0.1 µM (AKT3) | inhibition at 1 µM (AKT3) | inhibition at 0.1 µM (CAMK2α) | inhibition at 1 µM (CAMK2α) | inhibition at 0.1 µM (EGFR) | inhibition at 1 µM (EGFR) | inhibition at 0.1 µM (IGF1R) | inhibition at 1 µM (IGF1R) | inhibition at 0.1 µM (EPHA4) | inhibition at 1 µM (EPHA4) | inhibition at 0.1 µM (MAPK1) | inhibition at 1 µM (MAPK1) | inhibition at 0.1 µM (PDGFRα) | inhibition at 1 µM (PDGFRα) | inhibition at 0.1 µM (RSK3) | inhibition at 1 µM (RSK3) | inhibition at 0.1 µM (PLK1) | inhibition at 1 µM (PLK1) | inhibition at 0.1 µM (PRKD2) | inhibition at 1 µM (PRKD2) | also measured
COc1cc(-c2cc(-c3cccc(O)c3)cnc2N)cc(OC)c1OC [K02288, 3-[6-amino-5-(3,4,5-trimethoxy-phenyl)-pyridin-3-yl]-phenol] | -2% | 1.2% | -2% | -2% | 2.4% | 12% | -3% | -1% | -2% | 17% | -3% | 9.9% | 5.3% | 37% | 0.6% | 1.1% | -2% | -2% | 0.6% | 6.6% | inhibition at 0.1 µM (AURKB): 0.3%; inhibition at 1 µM (AURKB): 1.5%; inhibition at 0.1 µM (MER): 5.1%; inhibition at 1 µM (MER): 40%; inhibition at 0.1 µM (LRRK2): 7.1%; inhibition at 1 µM (LRRK2): 27%
c1ccc2c(-c3cnn4cc(-c5ccc(N6CCNCC6)cc5)cnc34)ccnc2c1 [LDN-193189] | 0.2% | 1.5% | 0% | -8% | 1.5% | 4.8% | 4.1% | 5.4% | 7.1% | 10% | 2.6% | 1.4% | 18% | 56% | 1.5% | 5.6% | 0.8% | 1.3% | 4.5% | 13% | inhibition at 0.1 µM (AURKB): 2.3%; inhibition at 1 µM (AURKB): 15%; inhibition at 0.1 µM (MER): 4.4%; inhibition at 1 µM (MER): 10%; inhibition at 0.1 µM (LRRK2): 8.7%; inhibition at 1 µM (LRRK2): 27%
